# Assay results published in patent US20230133118A1, “COMPOSITIONS AND METHODS FOR TREATING CANCER” (Adagene AG, priority 2020, published 2023).
# Values joined by “and” are separate entries in the source; they are usually repeats but may differ in a detail not shown here. Equal entries are not always repeated. Where two headings read alike, the source gives them in different places. Marks after values point to notes of the source that are not given here.
# What was measured:
# [1] = target: CD137 / CD137 ligand (4-1BBL) (Homo sapiens, UniProt Q07011); test: Blocking of CD137 / CD137 ligand interaction; type: binding
# CD137 / CD137 ligand (4-1BBL), sequence (Q07011 24-255): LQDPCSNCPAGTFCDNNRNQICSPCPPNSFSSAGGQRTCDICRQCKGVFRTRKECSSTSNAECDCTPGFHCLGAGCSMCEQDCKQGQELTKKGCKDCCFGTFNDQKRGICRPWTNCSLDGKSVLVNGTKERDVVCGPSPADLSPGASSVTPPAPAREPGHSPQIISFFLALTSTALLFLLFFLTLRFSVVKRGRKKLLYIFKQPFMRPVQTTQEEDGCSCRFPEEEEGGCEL
# Description: (§1) This was expected given that CD137 is known to function as a co-stimulatory T cell receptor. […] This property might prevent the potential of dual independent activation of CD137 potentially accounting for its distinct pharmacology and toxicology profile among this class of therapeutic antibodies.
# [2] = tested on: peripheral CD4+ and CD8+ T cells; test: Ki-67 expression on peripheral T cells of patients by flow cytometry; type: in vivo, human
# Description: T cell proliferation was examined by analyzing Ki-67 expression using flow cytometry analysis. Soluble CD137 (sCD137) levels in plasma were also examined using a validated MSD-based electrochemiluminescence assay.
# Lewis lung cancer cells = test: Lewis lung cancer model, ADG106 with cisplatin; type: in vivo, C57BL/6 mice; conditions: 5 mg/kg i.p.
# Description: C57BL/6 mice (n=8 per group, female, 6-8 weeks old) were transplanted subcutaneously with 5×10^5 Lewis lung cancer cells. […] Tumor growth was monitored twice weekly and reported as mean tumor volume ±SEM over time.
# 4T1 breast cancer cells = test: 4T1 breast cancer model, ADG106 with docetaxel; type: in vivo, BALB/c mice; conditions: 5 mg/kg; ADG106 i.p. twice a week 4 doses, Docetaxel i.v. once a week 3 doses
# Description: Tumor growth was monitored twice weekly and is reported as mean tumor volume ±SEM over time.
# [3] = tested on: 3LL (JCRB) murine lung cancer cells; test: 3LL lung cancer model, ADG106 with atezolizumab; type: in vivo, C57BL/6 mice; conditions: 10 mg/kg i.p. twice a week for 3 weeks
# Description: C57BL/6 mice (n=10 per group, female, 6-8 weeks old) were inoculated subcutaneously with 3LL (JCRB) murine lung cancer cells, a Lewis lung cancer cell line.
# T cells = test: T cell activation in vitro (with anti-CD3 antibody co-treatment); type: cell-based
# Description: To elaborate, there could be unquantified/uncertain combination effect with other MOAs, particularly with Immuno-oncology (IO) agents which could be potentially additive and/or synergistic for AEs.
# [4] = human, in vivo, iv
# Procedure: Blood samples for PK analysis were collected at Cycle 1 (Day 1: pre-dose and 2, 6, 12, and 24 hours after the end of infusion; once on Days 8, 15, and 22), Day 1 pre-dose and 2 hours after the end of infusion of subsequent cycles, and at the End of Treatment. […] PK parameters were estimated using a non-compartmental method with WinNonlin.
# NK (CD16+/CD56+) cells = test: TBNK flow cytometry of patient peripheral blood, NK cell percentage; type: in vivo, human; conditions: for Percentage of NK cells (CD3-CD56+/CD16+), Postdose: individual patients
# Procedure: Pre- and post-treatment peripheral blood samples from 31 patients in a phase 1 trial were collected for biomarker analyses. The TBNK flow cytometry assay was employed to measure the composition of T (CD3+, CD4+/CD8+ subsets), B (CD19+) and NK (CD16+/CD56+) cells in peripheral blood samples. NK cell levels were determined as percentages of CD45+ lymphocytes and absolute cell counts.
# CD137 [5] = target: CD137 (Homo sapiens, UniProt Q07011); test: Receptor occupancy calculated from drug plasma concentration and KD
# CD137 (Homo sapiens, UniProt Q07011), sequence (Q07011 24-255): as above
# MC38 colon cancer cells = test: MC38 colon cancer model, ADG106 with local radiation; type: in vivo, C57BL/6 mice; conditions: 10 mg/kg twice a week for 3 weeks
# Description: C57BL/6 mice (n=8 per group, female, 6-8 weeks old) were transplanted subcutaneously with 5×10^5 MC38 colon cancer cells. […] Tumor growth was monitored twice weekly and reported as mean tumor volume ±SEM over time.
# CD137 [6] = test: Binding to recombinant CD137 and CD137 on activated T cells; parameters: species or system human
# Description: as §1
# LLC-CD20 cells = test: LLC-CD20 lung cancer model, ADG106 with rituximab; type: in vivo, C57BL/6 mice; conditions: 10 mg/kg i.p. twice a week for 3 weeks
# Description: C57BL/6 mice (n=6 per group, female, 6-8 weeks old) were transplanted subcutaneously with 5×10^5 LLC-CD20 cells, a Lewis lung cancer cell line expressing CD20. […] Tumor growth was monitored twice weekly and reported as mean tumor volume ±SEM over time.
# human blood = test: Cytokine release in human blood ex vivo; type: cell-based
substance,measurement,setting,value
"ADG106: fully human agonistic anti-CD137 monoclonal IgG4 antibody; heavy chain SEQ ID NO: 10, light chain SEQ ID NO: 11",blocking of the interaction of CD137 to the CD137 ligand (4-1BBL),[1],fully blocks
same,increase in the frequency of Ki-67+CD4+ T cells,[2]; patient R011,increased about one fold
same,increase in the frequency of proliferating CD8+ T cells,[2]; patient R011,four to five fold increase
same,total CD8+ T cells expressing Ki-67 at peak,"[2]; patient R011, 21 days after infusion",~25%
same,"anti-tumor activity, monotherapy",Lewis lung cancer cells,showed anti-tumor activity
same,"anti-tumor activity, mono-therapy",4T1 breast cancer cells,marginal anti-tumor activity
same,"anti-tumor activity, monotherapy",[3],showed anti-tumor activity
same,"concentration range triggering observable, not maximal T cell activation",T cells; in vitro,1 to 3 µg/mL
same,concentration range triggering robust T cell activation,T cells; with anti-CD3 antibody co-treatment,≥ 10 µg/mL
same,T1/2,[4]; 0.03 mg/kg,87 h
same,T1/2,[4]; 0.3 mg/kg,159 h
same,T1/2,[4]; 1 mg/kg,146.3 h
same,T1/2,[4]; 3 mg/kg,149 h
same,"Percentage of NK cells (CD3-CD56+/CD16+), Postdose",NK (CD16+/CD56+) cells; C1D8,25.14% and 28.38% and 11.18% and 22.03% and 35.85% and 36.13% and 8.25% and 22.79% and 46.22% and 15.01% and 14.06% and 34.54% and 11.84% and 32.43% and 10.14% and 23.1% and 55% and 35.4% and 19.5% and 14.7% and 25%
same,"Percentage of NK cells (CD3-CD56+/CD16+), Postdose",NK (CD16+/CD56+) cells; C1D15,21.21* % and 22.19* %
same,"Percentage of NK cells (CD3-CD56+/CD16+), Postdose",NK (CD16+/CD56+) cells; C1D21,39.58^# % and 4.27^# % and 20.01^# % and 34.74^# % and 40.45^# % and 26.93^# % and 27.23^# % and 18.81^# % and 16.65^# %
same,dose saturating CD137 receptors on NK cells (NK cell proliferation effect),NK (CD16+/CD56+) cells; patients,≥ 1.5 mg/kg
same,Receptor occupancy,CD137 [5]; 0.03 mg/kg,58%
same,Receptor occupancy,CD137 [5]; 0.1 mg/kg,82%
same,Receptor occupancy,CD137 [5]; 0.3 mg/kg,93%
same,Calculated Receptor Occupancy,CD137 [5]; 1 mg/kg,98%
same,"antitumor activity, alone",MC38 colon cancer cells,marginal if any antitumor activity
same,affinity to CD137 on activated cynomolgus monkey and human T cells,CD137 [6],low nanomolar affinity
same,"tumor growth, single agent",LLC-CD20 cells,only weakly inhibited tumor growth
same,"cytokine (IL-2, IL-4, IL-6, IL-10, TNF-α, IFN-γ, IL-17) release",human blood,did not stimulate cytokine
